The target in experiment [1] is T1, human orexin 2 receptor (Homo sapiens, UniProt O43614).
T1 construct: expressed in transfected cells
T1 sequence (O43614 1-444): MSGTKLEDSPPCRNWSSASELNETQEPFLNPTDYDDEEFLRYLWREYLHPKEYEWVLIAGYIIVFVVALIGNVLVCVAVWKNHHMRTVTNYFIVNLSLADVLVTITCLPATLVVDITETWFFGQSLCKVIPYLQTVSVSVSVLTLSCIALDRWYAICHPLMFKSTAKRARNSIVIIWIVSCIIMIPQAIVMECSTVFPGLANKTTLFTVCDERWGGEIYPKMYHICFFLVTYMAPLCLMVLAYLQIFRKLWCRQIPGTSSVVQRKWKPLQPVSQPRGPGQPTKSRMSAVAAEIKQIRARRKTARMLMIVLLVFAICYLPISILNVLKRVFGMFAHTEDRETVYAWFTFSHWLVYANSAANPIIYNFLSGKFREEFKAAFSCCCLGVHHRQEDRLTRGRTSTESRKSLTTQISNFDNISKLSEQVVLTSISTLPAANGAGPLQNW
The experiment is described as follows: Calcium accumulation in cells (FLIPR), antagonism of orexin A, human orexin 2 receptor. It is filed as cell-based. The conditions noted are these: for Ki: calcium accumulation, antagonism of orexin A, Cheng-Prusoff corrected, read-out: FLIPR hOx2R Ki; for inhibition at 10 µM: measured at a concentration of 10 μM of compound, read-out: FLIPR hOx2R % inhibition.

Experiment [2] deals with T1, human orexin 2 receptor. In words: Radioligand binding assay ([3H]-SB649868 competition), human orexin 2 receptor. To be noted: radioligand [3H]-SB649868; read-out: Binding hOx2R Kd. As for the experimental part: Radioligand Binding Assay
For crude cell membrane preparations, cells (CHO, Chinese hamster ovary or HEK, human embryonic kidney) expressing human orexin 1 or human orexin 2 receptors, were washed with HEPES (10 mM, pH 7.5), scraped off the culture plates with the same buffer, and centrifuged at 4° C. for 5 min at 2500×g. The cell pellet was either stored at −80° C. or used directly. Before the experiments, cell membranes were re-suspended in binding assay buffer (10 mM HEPES, 0.5% (w/v) bovine serum albumin, pH 7.5) by homogenisation with a Polytron homogeniser at 50 Hz for 20 s. Cell membranes were also used as made available by commercial providers.
Bound radioactivity was measured, and data were analysed with the program XLFIT or Graphpad Prism. Protein concentration was determined according to the Bradford/BioRad Protein Assay Kit.
In competition experiments, cell homogenates (150 μl) were incubated in assay buffer (10 mM HEPES, pH 7.5, 0.5% (w/v) bovine serum albumin, 5 mM MgCl2, 1 mMCaCl2, and tween 0.05%) for 1 h at room temperature with about 1 nM of the radioligand [^3H]-SB649868, 66 Ci/mmole, 50 μl), and with various concentrations of compounds of the invention (50 μl) in triplicates; non-specific binding was determined in the presence of almorexant (10 μM). Reactions were terminated by vacuum filtration, 3 washes of ice cold wash buffer (Tris-HCl pH 7.4/10 mM, with NaCl 154 mM). Competition data is expressed in Table 1 as Kd [μM].

A further experiment has as its target T2, human orexin 1 receptor (Homo sapiens, UniProt O43613).
T2 construct: expressed in transfected cells
T2 sequence (O43613 1-425): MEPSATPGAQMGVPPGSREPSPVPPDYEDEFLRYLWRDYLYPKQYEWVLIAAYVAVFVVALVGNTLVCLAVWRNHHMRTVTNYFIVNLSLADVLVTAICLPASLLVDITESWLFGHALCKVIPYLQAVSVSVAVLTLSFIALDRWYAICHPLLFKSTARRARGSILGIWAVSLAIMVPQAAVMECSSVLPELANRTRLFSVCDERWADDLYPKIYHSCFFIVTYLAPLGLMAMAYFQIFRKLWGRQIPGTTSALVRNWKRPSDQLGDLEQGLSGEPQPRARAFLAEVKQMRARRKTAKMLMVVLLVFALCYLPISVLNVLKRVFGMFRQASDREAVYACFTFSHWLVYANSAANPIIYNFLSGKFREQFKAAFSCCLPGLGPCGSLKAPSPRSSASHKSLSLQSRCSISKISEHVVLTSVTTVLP
In words: Calcium accumulation in cells (FLIPR), antagonism of orexin A, human orexin 1 receptor. The format is cell-based. The conditions noted are these: for Ki: calcium accumulation, antagonism of orexin A, Cheng-Prusoff corrected, read-out: FLIPR hOx1R Ki; for inhibition at 10 µM: measured at a concentration of 10 μM of compound, read-out: FLIPR hOx1R % inhibition.

Each structure is given as a SMILES string.

What is called Ki is a measure of affinity in units of concentration, obtained from inhibition or displacement. As a reminder, the Kd is the constant that tells how readily two partners part at equilibrium. For the molecule `COCc1cccc(-c2nn(C)nc2CN2CCNC3(CCN(c4nc(C)cc(C)n4)CC3)C2=O)c1` [Example 1.76, 9-(4,6-dimethyl-pyrimidin-2-yl)-4-((5-(3-(methoxy-methyl)phenyl)-2-methyl-2H-1,2,3-triazol-4-yl)methyl)-1,4,9-triazaspiro[5.5] undecan-5-one], the Ki at human orexin 2 receptor [1] came out at 86 nM; at human orexin 1 receptor, 1640 nM. Also, the Kd at human orexin 2 receptor [2] is 174 nM.
For `COc1cc(C)nc(N2CCC3(CCN(Cc4n[nH]c5ccccc45)C3=O)CC2)n1` [Example 3.21, 2-((1H-indazol-3-yl)methyl)-8-(4-methoxy-6-methylpyrimidin-2-yl)-2,8-diazaspiro[4.5]decan-1-one] the same measures were 117 nM, 1010 nM and 699 nM.
For `COCc1noc(-c2ccccc2CN2CCNC3(CCN(c4nc(C)cc(C)n4)CC3)C2=O)n1` [Example 1.63, 9-(4,6-dimethyl-pyrimidin-2-yl)-4-(2-(3-(methoxymethyl)-1,2,4-oxadiazol-5-yl)benzyl)-1,4,9-triazaspiro[5.5] undecan-5-one] the same measures were 46 nM, 4080 nM and 252 nM.
Usually inhibition stands for how much of the control response was suppressed. Consider `COc1cccc(-c2sc(C)nc2CN2CCNC3(CCN(c4nc(C)cc(C#N)n4)CC3)C2=O)c1` [Example 1.25, 2-(4-((5-(3-Methoxyphenyl)-2-methylthiazol-4-yl)methyl)-5-oxo-1,4,9-triazaspiro[5.5]undecan-9-yl)-6-methylpyrimidine-4-carbonitrile], for which the Ki at human orexin 2 receptor [1] came out at 76 nM. Besides, on human orexin 2 receptor [2], the Kd turned out to be 394 nM. For the same molecule, the inhibition at 10 µM at human orexin 1 receptor worked out at 31%.
Regarding `Cc1cc(C)nc(N2CCC3(CCN(Cc4c[nH]c5ccccc45)C3=O)CC2)n1` [Example 3.1, 2-((1H-Indol-3-yl)methyl)-8-(4,6-dimethylpyrimidin-2-yl)-2,8-diazaspiro[4.5]decan-1-one], the Ki on human orexin 2 receptor [1] came out at 32 nM; on human orexin 1 receptor it was 1900 nM. Moreover, the Kd at human orexin 2 receptor [2] was found to be 228 nM.
The like results for `Cc1cc(C)nc(N2CCC3(CC2)OCCN(Cc2n[nH]nc2-c2ccccc2)C3=O)n1` [Example 2.14, 9-(4,6-Dimethylpyrimidin-2-yl)-4-((5-phenyl-2H-1,2,3-triazol-4-yl)methyl)-1-oxa-4,9-diazaspiro[5.5]undecan-5-one] were, in that order, 50 nM, 2720 nM and 241 nM.
As to `N#Cc1ccnc(N2CCC3(CCN(Cc4c[nH]c5ccccc45)C3=O)CC2)c1` [Example 3.3, 2-(2-((1H-Indol-3-yl)methyl)-1-oxo-2,8-diazaspiro[4.5]decan-8-yl)isonicotinonitrile], the Ki on human orexin 2 receptor [1] turned out to be 496 nM. In addition, the inhibition at 10 µM on human orexin 1 receptor is 27%.
In the case of `COc1cc(N2CCC3(CCN(Cc4c[nH]c5ccccc45)C3=O)C2)nc2ccnn12` (stereo not drawn) [Example 5.33, 2-((1H-indol-3-yl)methyl)-7-(7-methoxypyrazolo[1,5-a]pyrimidin-5-yl)-2,7-diazaspiro[4.4]nonan-1-one], the inhibition at 10 µM on human orexin 2 receptor [1] and at human orexin 1 receptor was under 10% throughout.
On to `COc1ccnc(N2CCC3(CCN(Cc4n[nH]c5ccccc45)C3=O)CC2)n1` [Example 3.16, 2-(1H-Indazol-3-ylmethyl)-8-(4-methoxy-pyrimidin-2-yl)-2,8-diaza-spiro[4.5]decan-1-one], for which the Ki at human orexin 2 receptor [1] was found to be 673 nM. Also, the inhibition at 10 µM at human orexin 1 receptor amounted to 39%.
Take `Cc1cc(C)nc(N2CCC3(CC2)OCCN(Cc2conc2-c2ccccc2)C3=O)n1` [Example 2.26, 9-(4,6-dimethylpyrimidin-2-yl)-4-((3-phenylisoxazol-4-yl)methyl)-1-oxa-4,9-diazaspiro[5.5]undecan-5-one]: the inhibition constant (Ki) on human orexin 2 receptor [1] was found to be 148 nM; on human orexin 1 receptor, 1180 nM.
Take `COc1cccc(-c2cn(C)nc2CN2CCNC3(CCN(c4nc(C)cc(C)n4)CC3)C2=O)n1` [Example 1.54, 9-(4,6-Dimethyl-pyrimidin-2-yl)-4-((4-(6-methoxypyridin-2-yl)-1-methyl-1H-pyrazol-3-yl)methyl)-1,4,9-triazaspiro[5.5] undecan-5-one]: the figures for the inhibition at 10 µM on human orexin 2 receptor [1] and at human orexin 1 receptor were 32% and 15%, respectively.
Take `Cc1ccnc(N2CCC3(CC2)NCCN(Cc2c[nH]c4ccccc24)C3=O)n1` [Example 1.6, 4-((1H-Indol-3-yl)methyl)-9-(4-methylpyrimidin-2-yl)-1,4,9-triazaspiro[5.5] undecan-5-one]: the Ki at human orexin 2 receptor [1] stood at 222 nM. The inhibition at 10 µM on human orexin 1 receptor worked out at 26%.
Regarding `COc1cc(N2CCC3(CCN(Cc4c[nH]c5ccccc45)C3=O)C2)nc(C2CC2)n1` (stereo not drawn) [Example 5.21, 2-((1H-indol-3-yl)methyl)-7-(2-cyclopropyl-6-methoxypyrimidin-4-yl)-2,7-diazaspiro[4.4]nonan-1-one], the Ki came out at 370 nM at human orexin 2 receptor [1] and 1300 nM on human orexin 1 receptor.
Turning to `Cc1cc(C)nc(N2CCC3(CC2)OCCN(Cc2ccccc2-c2ncco2)C3=O)n1` [Example 2.9, 9-(4,6-Dimethylpyrimidin-2-yl)-4-(2-(oxazol-2-yl)benzyl)-1-oxa-4,9-diazaspiro[5.5]undecan-5-one], the Ki on human orexin 2 receptor [1] worked out at 659 nM. The inhibition at 10 µM at human orexin 1 receptor came to 42%.
`CNC(=O)c1cccc(-c2cn(C)nc2CN2CCNC3(CCN(c4nc(C)cc(C)n4)CC3)C2=O)c1` [Example 1.49, 3-(3-((9-(4,6-Dimethylpyrimidin-2-yl)-5-oxo-1,4,9-triazaspiro[5.5]undecan-4-yl)methyl)-1-methyl-1H-pyrazol-4-yl)-N-methylbenzamide]: the results for the inhibition at 10 µM on human orexin 2 receptor [1] and on human orexin 1 receptor were 38% and 20%, respectively.
The like results for `Cc1cc(C)nc(N2CCC3(CC2)OCCN(Cc2nnn(C)c2-c2ccccc2)C3=O)n1` [Example 2.16, 9-(4,6-Dimethylpyrimidin-2-yl)-4-((1-methyl-5-phenyl-1H-1,2,3-triazol-4-yl)methyl)-1-oxa-4,9-diazaspiro[5.5]undecan-5-one] were, in that order, 27% and 16%.
Turning to `O=C1COCC2(CCN(c3cnc4ccccc4n3)CC2)N1Cc1cccc(-c2cccnc2)c1` [Example 8.12, 1-(3-(Pyridin-3-yl)benzyl)-9-(quinoxalin-2-yl)-4-oxa-1,9-diazaspiro[5.5]undecan-2-one], the inhibition at 10 µM at human orexin 2 receptor [1] came to 30%. Also, the Ki on human orexin 1 receptor was found to be 232 nM.
For the molecule `COc1ccnc(N2CCC3(CCN(Cc4ccccc4-c4nc(C)no4)C3=O)C2)n1` (stereo not drawn) [Example 5.13, 7-(4-Methoxypyrimidin-2-yl)-2-(2-(3-methyl-1,2,4-oxadiazol-5-yl)benzyl)-2,7-diazaspiro[4.4]nonan-1-one], the figures for the Ki at human orexin 2 receptor [1] and on human orexin 1 receptor were 673 nM and 4160 nM, respectively.
For `O=C1N(Cc2c[nH]c3ccccc23)CCC12CCN(c1ccnc(-n3ccnc3)n1)C2` (stereo not drawn) [Example 5.19, 7-(2-(1H-imidazol-1-yl)pyrimidin-4-yl)-2-((1H-indol-3-yl)methyl)-2,7-diazaspiro[4.4]nonan-1-one], the Ki was determined as 665 nM at human orexin 2 receptor [1] and 1190 nM at human orexin 1 receptor.
For `O=C1CCC2(CCN(c3cnc4ccccc4n3)C2)N1Cc1cccc2[nH]ccc12` (stereo not drawn) [Example 9.1] the same measures were 1380 nM and 666 nM.
With `COCc1cccc(-c2oc(C)nc2CN2CCNC3(CCN(c4nc(C)cc(C#N)n4)CC3)C2=O)c1` [Example 1.31, 2-(4-((5-(3-(Methoxymethyl)phenyl)-2-methyl-oxazol-4-yl)methyl)-5-oxo-1,4,9-triazaspiro[5.5]undecan-9-yl)-6-methylpyrimidine-4-carbonitrile], at human orexin 2 receptor [1], the Ki is 64 nM. In addition, the inhibition at 10 µM on human orexin 1 receptor worked out at 38%.

The record behind these values is patent publication US20120165331A1, “Di/tri-aza-spiro-C9-C11alkanes” (priority 2010, published 2012).
